Source: ChEMBL document CHEMBL2311391, “Novel inhibitors of protein arginine deiminase with potential activity in multiple sclerosis animal model” (J Med Chem, 2013)

How the values were obtained:
Mus musculus [1] = species: Mus musculus; assay: Toxicity in mouse at 20 mg as single dose; format: organism-based; settings: in vivo
Mus musculus [2] = species: Mus musculus; assay: Antiinflammatory activity against MOG peptide-induced experimental autoimmune encephalomyelitis mouse model assessed as CD3 marker measured on day 24 after 2 weeks of treatment (reference value: 4.8 +/- 0.19 /mm'2); format: functional
Mus musculus [3] = species: Mus musculus; assay: Toxicity in mouse at 10 mg for 5 days; format: organism-based; settings: in vivo, 120 h

**Q.** For `CC1(C)NC(=O)N(CN2CCNCC2)C1=O`, which Activity (Mus musculus [1]) is on record?
**A.** Non-toxic

**Q.** What about the Activity (Mus musculus [2]) of the same molecule?
**A.** 3.8 mm2

**Q.** What about the Activity (Mus musculus [3]) of the same molecule?
**A.** Non-toxic
